From the supplement of paper PMC10733146

Experiments:
Experiment in all cases: viability relative to DMSO control (fraction); higher = less drug effect (more viable cells)
Settings in all cases: 48 h
[1] = tested on: primary AML patient cells (S089)
How it was run: (§1)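 Using 384-well plates with compounds already plated at five concentrations, one well per concentration, 4 × 10^4 primary mononuclear tumour cells were added per well. Cells were Ficoll-isolated from blood or bone marrow or came from processed lymph node, fresh or cryopreserved. They were kept for 48 h at 37 °C and 5% CO2 in RPMI-1640 supplemented with penicillin/streptomycin, L-glutamine and human serum, and viability was read as CellTiter-Glo luminescence relative to the median of 16 inner DMSO wells.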

[2] = tested on: primary MCL patient cells (S053)
How it was run: as §1

[3] = tested on: primary AML patient cells (S025)
How it was run: as §1

[4] = tested on: primary AML patient cells (S012)
How it was run: as §1

[5] = tested on: primary AML patient cells (S072)
How it was run: as §1

[6] = tested on: primary AML patient cells (S019)
How it was run: as §1

[7] = tested on: primary AML patient cells (S002)
How it was run: as §1

[8] = tested on: primary CLL patient cells (S031)
How it was run: as §1

[9] = tested on: primary CLL patient cells (S043)
How it was run: as §1

[10] = tested on: primary AML patient cells (S037)
How it was run: as §1

[11] = tested on: primary AML patient cells (S091)
How it was run: as §1

[12] = tested on: primary ALL patient cells (S048)
How it was run: as §1

[13] = tested on: primary AML patient cells (S056)
How it was run: as §1

[14] = tested on: primary MCL patient cells (S068)
How it was run: as §1

[15] = tested on: primary AML patient cells (S085)
How it was run: as §1

[16] = tested on: primary AML patient cells (S017)
How it was run: as §1

[17] = tested on: primary FL patient cells (S022)
How it was run: as §1

[18] = tested on: primary AML patient cells (S071)
How it was run: as §1

[19] = tested on: primary BL patient cells (S005)
How it was run: as §1

[20] = tested on: primary AML patient cells (S079)
How it was run: as §1

## Nc1nc(Cl)nc2c1ncn2[C@@H]1O[C@H](CO)[C@@H](O)[C@@H]1F [Clofarabine]
[1]; 0.024 µM
  viability: 0.851
[1]; 0.12 µM
  viability: 0.737
[1]; 0.6 µM
  viability: 0.506
[1]; 3 µM
  viability: 0.461
[1]; 15 µM
  viability: 0.327
[2]; 0.024 µM
  viability: 0.492
[2]; 0.12 µM
  viability: 0.356
[2]; 0.6 µM
  viability: 0.266
[2]; 3 µM
  viability: 0.255
[2]; 15 µM
  viability: 0.211
[3]; 0.024 µM
  viability: 0.528
[3]; 0.12 µM
  viability: 0.46
[3]; 0.6 µM
  viability: 0.478
[3]; 3 µM
  viability: 0.492
[3]; 15 µM
  viability: 0.463
[4]; 0.024 µM
  viability: 0.956
[4]; 0.12 µM
  viability: 0.826
[4]; 0.6 µM
  viability: 0.459
[4]; 3 µM
  viability: 0.276
[4]; 15 µM
  viability: 0.136
[5]; 0.024 µM
  viability: 0.863
[5]; 0.12 µM
  viability: 0.762
[5]; 0.6 µM
  viability: 0.587
[5]; 3 µM
  viability: 0.521
[5]; 15 µM
  viability: 0.407
[6]; 0.024 µM
  viability: 0.918
[6]; 0.12 µM
  viability: 0.476
[6]; 0.6 µM
  viability: 0.392
[6]; 3 µM
  viability: 0.431
[6]; 15 µM
  viability: 0.345
[7]; 0.024 µM
  viability: 0.696
[7]; 0.12 µM
  viability: 0.427
[7]; 0.6 µM
  viability: 0.375
[7]; 3 µM
  viability: 0.387
[7]; 15 µM
  viability: 0.329
[8]; 0.024 µM
  viability: 0.424
[8]; 0.12 µM
  viability: 0.0924
[8]; 0.6 µM
  viability: 0.0411
[8]; 3 µM
  viability: 0.0349
[8]; 15 µM
  viability: 0.0384
[9]; 0.024 µM
  viability: 1
[9]; 0.12 µM
  viability: 0.888
[9]; 0.6 µM
  viability: 0.457
[9]; 3 µM
  viability: 0.284
[9]; 15 µM
  viability: 0.157
[10]; 0.024 µM
  viability: 1.01
[10]; 0.12 µM
  viability: 0.834
[10]; 0.6 µM
  viability: 0.656
[10]; 3 µM
  viability: 0.651
[10]; 15 µM
  viability: 0.627
[11]; 0.024 µM
  viability: 0.661
[11]; 0.12 µM
  viability: 0.527
[11]; 0.6 µM
  viability: 0.482
[11]; 3 µM
  viability: 0.459
[11]; 15 µM
  viability: 0.425
[12]; 0.024 µM
  viability: 0.345
[12]; 0.12 µM
  viability: 0.0686
[12]; 0.6 µM
  viability: 0.0335
[12]; 3 µM
  viability: 0.0271
[12]; 15 µM
  viability: 0.0269
[13]; 0.024 µM
  viability: 1
[13]; 0.12 µM
  viability: 0.413
[13]; 0.6 µM
  viability: 0.288
[13]; 3 µM
  viability: 0.277
[13]; 15 µM
  viability: 0.303
[14]; 0.024 µM
  viability: 0.522
[14]; 0.12 µM
  viability: 0.301
[14]; 0.6 µM
  viability: 0.203
[14]; 3 µM
  viability: 0.156
[14]; 15 µM
  viability: 0.128
[15]; 0.024 µM
  viability: 0.897
[15]; 0.12 µM
  viability: 0.41
[15]; 0.6 µM
  viability: 0.286
[15]; 3 µM
  viability: 0.468
[15]; 15 µM
  viability: 0.555
[16]; 0.024 µM
  viability: 1.06
[16]; 0.12 µM
  viability: 0.91
[16]; 0.6 µM
  viability: 0.538
[16]; 3 µM
  viability: 0.3
[16]; 15 µM
  viability: 0.149
[17]; 0.024 µM
  viability: 0.817
[17]; 0.12 µM
  viability: 0.643
[17]; 0.6 µM
  viability: 0.457
[17]; 3 µM
  viability: 0.306
[17]; 15 µM
  viability: 0.256
[18]; 0.024 µM
  viability: 0.646
[18]; 0.12 µM
  viability: 0.298
[18]; 0.6 µM
  viability: 0.219
[18]; 3 µM
  viability: 0.217
[18]; 15 µM
  viability: 0.211
[19]; 0.024 µM
  viability: 0.929
[19]; 0.12 µM
  viability: 0.925
[19]; 0.6 µM
  viability: 0.761
[19]; 3 µM
  viability: 0.882
[19]; 15 µM
  viability: 0.735
[20]; 0.024 µM
  viability: 0.804
[20]; 0.12 µM
  viability: 0.512
[20]; 0.6 µM
  viability: 0.285
[20]; 3 µM
  viability: 0.139
[20]; 15 µM
  viability: 0.0818
